Data set [1] relates to MT4. Kind of data set: Tested for inhibition of cytopathic effect of HIV-2ROD in MT-4 cells. It counts as functional, cell-based. The settings on record: Homo sapiens.
Data set [2] is described as follows: Cytotoxicity of compound was tested as concentration required for 50% reduction in cellular viability in MT-4 cells. It counts as cell-based, MT4. The settings on record: human.
Data set [3] is described as follows: Cytotoxicity of compound was tested as concentration required for 50% reduction in cellular viability in CEM-SS cells. It counts as cell-based. As to conditions: human.
The subject of a further data set is CEM-SS. Briefly: Tested for inhibition of cytopathic effect of HIV-1RF in CEM-SS cells. It counts as functional, cell-based. The settings on record: Homo sapiens.
Data set [4] relates to MT4. Briefly: Tested for inhibition of cytopathic effect of HIV-1 IIIB in MT-4 cells. It counts as functional, cell-based. The settings on record: Homo sapiens.

Consider ten molecules from ChEMBL document CHEMBL1132806, “Anti-HIV activity of a series of cosalane amino acid conjugates” (Bioorg Med Chem Lett, 2000).

Regarding `CC(C)CCCC(C)[C@H]1CC[C@H]2[C@@H]3CCC4C[C@@H](CCC=C(c5cc(Cl)c(O)c(C(=O)NCC(=O)O)c5)c5cc(Cl)c(O)c(C(=O)NCC(=O)O)c5)CC[C@]4(C)[C@H]3CC[C@]12C` (stereo partly specified), the EC50 in the data set on MT4 [1] is greater than 125 µM; with CEM-SS, 3.44 µM; in the data set on MT4 [4], 50.8 µM. In addition, the CC50 was greater than 125 µM in data set [2] and greater than 200 µM in data set [3].

In the case of `CC(C)CCCC(C)[C@H]1CC[C@H]2[C@@H]3CCC4C[C@@H](CCC=C(c5cc(Cl)c(O)c(C(=O)O)c5)c5cc(Cl)c(O)c(C(=O)O)c5)CC[C@]4(C)[C@H]3CC[C@]12C` (stereo partly specified), the cytotoxic concentration (CC50) in data set [2] and in data set [3] was greater than 200 µM each time.

As for `CC(C)CCCC(C)[C@H]1CC[C@H]2[C@@H]3CCC4C[C@@H](CCC=C(c5cc(Cl)c(O)c(C(=O)NCCC(=O)O)c5)c5cc(Cl)c(O)c(C(=O)NCCC(=O)O)c5)CC[C@]4(C)[C@H]3CC[C@]12C` (stereo partly specified), the EC50 in the data set with MT4 [1] is 120 µM; in the data set with CEM-SS it was 34.7 µM; in the data set on MT4 [4], 75.3 µM. The CC50 is greater than 125 µM in data set [2] and greater than 200 µM in data set [3].

As to `CC(C)CCCC(C)[C@H]1CC[C@H]2[C@@H]3CCC4C[C@@H](CCC=C(c5cc(Cl)c(O)c(C(=O)N[C@@H](CC(C)C)C(=O)O)c5)c5cc(Cl)c(O)c(C(=O)N[C@@H](CC(C)C)C(=O)O)c5)CC[C@]4(C)[C@H]3CC[C@]12C` (stereo partly specified), the EC50 in the data set on MT4 [1] is greater than 125 µM; in the data set on CEM-SS it was 40 µM; in the data set with MT4 [4] it was 63 µM. For the same molecule, the cytotoxic concentration (CC50) in data set [2] is greater than 125 µM; in data set [3], greater than 200 µM.

Regarding `CC(C)CCCC(C)[C@H]1CC[C@H]2[C@@H]3CCC4C[C@@H](CCCC(c5cc(Cl)c(O)c(C(=O)N[C@@H](CCC(=O)O)C(=O)O)c5)c5cc(Cl)c(O)c(C(=O)N[C@@H](CCC(=O)O)C(=O)O)c5)CC[C@]4(C)[C@H]3CC[C@]12C` (stereo partly specified), the EC50 in the data set with MT4 [1] is 75.2 µM; with CEM-SS it was 11.6 µM; in the data set on MT4 [4] it was 10.6 µM. Further, the values for the CC50 in data set [2] and in data set [3] were greater than 125 µM and 34 µM, respectively.

With `CC(C)CCCC(C)[C@H]1CC[C@H]2[C@@H]3CCC4C[C@@H](CCC=C(c5cc(Cl)c(O)c(C(=O)NCC(=O)OC(C)(C)C)c5)c5cc(Cl)c(O)c(C(=O)NCC(=O)OC(C)(C)C)c5)CC[C@]4(C)[C@H]3CC[C@]12C` (stereo partly specified), the EC50 with MT4 [1] and in the data set with MT4 [4] was greater than 125 µM throughout. The CC50 in data set [2] and in data set [3] was greater than 125 µM in each case.

On to `CC(C)CCCC(C)[C@H]1CC[C@H]2[C@@H]3CCC4C[C@@H](CCC=C(c5cc(Cl)c(O)c(C(=O)N[C@@H](CCC(=O)O)C(=O)O)c5)c5cc(Cl)c(O)c(C(=O)N[C@@H](CCC(=O)O)C(=O)O)c5)CC[C@]4(C)[C@H]3CC[C@]12C` (stereo partly specified), for which the EC50 in the data set with MT4 [1] was determined as 71.6 µM; in the data set on CEM-SS, 1.1 µM; in the data set on MT4 [4], 9.2 µM. Moreover, the CC50 is greater than 125 µM in data set [2] and 82 µM in data set [3].

`CC(C)CCCC(C)[C@H]1CC[C@H]2[C@@H]3CCC4C[C@@H](CCC=C(c5cc(Cl)c(O)c(C(=O)N[C@@H](Cc6ccccc6)C(=O)O)c5)c5cc(Cl)c(O)c(C(=O)N[C@@H](Cc6ccccc6)C(=O)O)c5)CC[C@]4(C)[C@H]3CC[C@]12C` (stereo partly specified): the EC50 was greater than 62 µM with MT4 [1], greater than 200 µM in the data set with CEM-SS and greater than 62 µM in the data set with MT4 [4]. In addition, the results for the CC50 in data set [2] and in data set [3] were 62 µM and greater than 200 µM, respectively.

`CC(C)CCCC(C)[C@H]1CC[C@H]2[C@@H]3CCC4C[C@@H](CCC=C(c5cc(Cl)c(O)c(C(=O)N[C@@H](CC(=O)O)C(=O)O)c5)c5cc(Cl)c(O)c(C(=O)N[C@@H](CC(=O)O)C(=O)O)c5)CC[C@]4(C)[C@H]3CC[C@]12C` (stereo partly specified): the EC50 is 122 µM in the data set with MT4 [1], 10.7 µM in the data set with CEM-SS and 16.6 µM with MT4 [4]. Also, the CC50 in data set [2] is greater than 125 µM; in data set [3], 90 µM.

Take `CC(C)CCCC(C)[C@H]1CC[C@H]2[C@@H]3CCC4C[C@@H](CCCC(c5cc(Cl)c(O)c(C(=O)NCC(=O)O)c5)c5cc(Cl)c(O)c(C(=O)NCC(=O)O)c5)CC[C@]4(C)[C@H]3CC[C@]12C` (stereo partly specified): the figures for the EC50 in the data set with MT4 [1], with CEM-SS and in the data set with MT4 [4] were greater than 125 µM, 4.5 µM and 34.8 µM, respectively. For the same molecule, the CC50 is greater than 125 µM in data set [2] and greater than 200 µM in data set [3].
